Experimental data reported in patent US20200276181A1, “THIENOISOQUINOLINES AND THEIR DERIVATIVES FOR TARGETING TUBULIN, CH-TOG, AURORA A KINASE, TPX2, CDK5RAP2 AND/OR ASPM” (VALORBEC, SEC, priority 2017, published 2020).

Columns and labels:
A549 cells = assay: Spindle phenotypes, fixed cells stained for γ-tubulin and ACA; type: cell-based, human; conditions: 300 nM for 4 hours
Source text: (§1) For each condition, 20,000 cells were counted per replicate (N=3). Line graphs (right) were made to better illustrate the relative changes in the cell cycle phases for the different treatments. Bars show standard deviation. The asterisks indicate the first statistically significant change in the G0/G1 and G2/M populations determined by a two-way ANOVA with a post-hoc Tukey's multiple comparisons test using 95% confidence intervals. FIG. 2B) is a line graph showing the percentage of HCT116 (p53−/−) cells, A549 cells, HeLa cells and H1299 cells in mitosis after treatment with various concentrations of C75 for one population doubling time. All of the cell lines show an increase in the proportion of mitotic cells after treatment with 200 nM C75. The bars indicate standard deviation. […] While the mitotic spindles were not dramatically altered by C75 in HFF1 cells, they were monopolar (as shown) or fragmented in the other cell types. […] The mitotic spindles were more strongly fragmented after C75 treatment in these cells vs. the cells in FIG. 2C). FIG. 2E) are images showing fixed HFF1, HeLa, A549 and HCT 116 cells co-stained for γ-tubulin (spindle poles; white) and ACA (centromeres; light grey) 4 hours after treatment with 300 nM C87 (control) or 300 nM C75. Cartoon schematics show examples of the different spindle phenotypes, including bipolar with aligned chromosomes (top), bipolar with misaligned chromosomes (upper middle), multipolar/fragmented (lower middle), or monopolar (bottom), and the proportion of that phenotype is shown in the top right corner of each image. FIG. 2F) is a bar graph showing the proportion of the different spindle phenotypes for HFF1, HeLa, A549 and HCT 116 cells treated as in FIG. 2E) (n=1355; N=3). Bars show standard deviation. […] While mitotic spindles recovered bipolarity after removing nocodazole, they remained multipolar after removing C75. […] FIG. 2J) is a bar graph showing the proportion of cells with monopolar (black), bipolar (dark grey) or multipolar (light grey) spindles. Bars show standard deviation. FIG. 2K) is a series of time-lapse images of a live HeLa cell expressing GFP:tubulin after treatment with C75 as shown in 2G). […] Drugs were not washed out. […]
(§2) C75 was also tested for efficacy in different cancer cell lines. […] To further assess the role of C75 in disrupting spindles, HeLa cells were treated with 300 nM C75 for 4 hours and the spindle phenotypes were analyzed in more detail (FIG. 2E). […] To assess the affect of C75 on centrosomes, HeLa cells were treated with C75 or nocodazole (a drug that causes microtubule depolymerization as a control) for a short period of time (5 minutes), then the drugs were removed and the cells were analyzed for spindle phenotypes (schematic in FIG. 2G). […]

HeLa cells = assay: as above; type: cell-based, human; conditions: 300 nM for 4 hours
Source text: as §1, §2

COc1ccc(S(=O)(=O)N2Cc3ccccc3-c3sc(Br)cc32)cc1 [Compound C75]
cells with bipolar spindles with misaligned chromosomes (A549 cells): 17% | cells with multipolar or fragmented spindles (A549 cells): 78% | cells with bipolar spindles with misaligned chromosomes (HeLa cells): 41% | cells with multipolar or fragmented spindles (HeLa cells): 31%
